Measurements taken from publication PMC7738869, “A novel STAT3 inhibitor W2014-S regresses human non-small cell lung cancer xenografts and sensitizes EGFR-TKI acquired resistance” (Theranostics, 2021).
Several values for one entry are separate records, joined by “and”; a condition that tells them apart may be missing. Identical values can stand only once. Like-named read-outs stand apart in the source and are kept apart here.

Tests used:
PC-9 cells = assay: Colony formation assay, PC-9; format: cell-based, human; details: PC-9, as low as 0.3 μM
A549 cells = assay: Wound healing assay for migration; format: cell-based, human; details: 48 h
Description: The motility of cells was measured by wound healing assay. Cells were seeded into 6-well plates and cultured to 90-100% confluent after 24 h. Wounds were made in each well of 6-well plates using pipette tips. […] The migration of cells was visualized under a microscope (4 ×, Nikon, Japan) and photographed in different time points (0 and 48 h).

A549 xenografts = assay: A549 tumor xenografts in nude mice; format: in vivo
Description: To establish cell xenograft model, nude mice were injected subcutaneously with A549 cells (2×10^6) or PC-9/GR cells (4×10^6). For PDX model, the PDX sample was from The Jackson Laboratory. The model ID is TM00192/LG0567F. For this patient, the primary site is lung, the initial and diagnosis and final diagnosis is lung adenocarcinoma. The stage/grade is AJCC IB/grade 3. […] The sample type is surgical resection. […] The tumor sample were cut into approximately 1 mm^3, and the tissue was pushed under skin of mice by TROCHAR. When tumor volumes reached approximately 100 mm^3, mice were randomly distributed into groups of 7 mice. […] Tumor size was measured every two days by vernier caliper. The average tumor volume in each group was calculated based on the equation for a prolate spheroid (tumor volume = (short-diameter)^2 × large-diameter × π / 6 ) and expressed in mm^3.

Pharmacokinetic study = format: in vivo, SD rats; details: for MRT inf: read-out: MRTINF_obs
Description: W2014-S was given to SD rats (male, 230-260g, n = 6) by gavage and intravenous administration. The rats were fasted for 12 h before administration and remained fasting for 2 h. For oral gavage, W2014-S was dissolved in DMSO/0.5% HPMC (5/95, v/v/), and W2014-S was dissolved in DMSO/EtOH/PEG300/0.9% NaCl (5/5/40/50, v/v/v/v) for intravenous administration. The pharmacokinetic (PK) profiles were next evaluated in SD rats.

With `C[C@H](Oc1ccc(-c2nc3nc(C4=CCN(C(=O)OC(C)(C)C)CC4)ccc3[nH]2)cc1)c1ccccc1` [W2014-S] the colony formation (PC-9 cells) was “significantly suppressed the colony formation”, the cell migration (A549 cells) was “remarkably inhibited the migration” and the “body weights and signs of toxicity during treatment” value (A549 xenografts; A549 xenograft mice, 5 or 15 mg/kg daily, 21 d) was “no significant changes in body weights, or obvious signs of toxicity”. The “level of pY705-STAT3 in tumor (western blot)” value (A549 xenografts; A549 xenografts) was “significantly suppressed the level of pY705-STAT3”, the growth of xenografts (A549 xenografts; A549 xenografts, i.p. 5 or 15 mg/kg daily, 21 d) was “significantly inhibited growth” and the “expression of Ki-67 in tumor (IHC)” value (A549 xenografts; A549 xenografts, vs vehicle) was “significantly reduced”. For the same compound, the “Concentration in rat plasma, individual animals 4-6” value (“Concentration in rat plasma” for short) (Pharmacokinetic study; i.v. 3 mg/kg, 0.05 h, 3 mg/kg) was 335 ng/mL and 339 ng/mL, the “Concentration in rat plasma” value (Pharmacokinetic study; i.v. 3 mg/kg, 0.25 h, 3 mg/kg) was 145 ng/mL and 134 ng/mL and the “Concentration in rat plasma” value (Pharmacokinetic study; i.v. 3 mg/kg, 0.75 h, 3 mg/kg) was 66.9 ng/mL and 80.1 ng/mL. For the same compound, the “Concentration in rat plasma” value (Pharmacokinetic study; i.v. 3 mg/kg, 2.00 h, 3 mg/kg) was 17.6 ng/mL and 22.6 ng/mL, the “Concentration in rat plasma” value (Pharmacokinetic study; i.v. 3 mg/kg, 4.00 h, 3 mg/kg) was 3.60 ng/mL and 5.00 ng/mL and the “Concentration in rat plasma” value (Pharmacokinetic study; i.v. 3 mg/kg, 8.00 h, 3 mg/kg) was 1.10 ng/mL and 2.60 ng/mL and 2.20 ng/mL. The “Concentration in rat plasma” value (Pharmacokinetic study; i.v. 3 mg/kg, 24.0 h, 3 mg/kg) was 1.30 ng/mL and 1.20 ng/mL, the concentration at 0.05 h (Pharmacokinetic study; male, SD, rat, plasma, iv, 3 mg/kg, i.v. 3 mg/kg, 0.05 h, read-out: Concentration in rat plasma, individual animals 4-6) was 454 ng/mL and the concentration at 0.05 h (Pharmacokinetic study; male, SD, rat, plasma, iv, 3 mg/kg, i.v. 3 mg/kg, 0.05 h, read-out: Concentration in rat plasma, mean) was 376 ng/mL. The concentration at 0.25 h (Pharmacokinetic study; male, SD, rat, plasma, iv, 3 mg/kg, i.v. 3 mg/kg, 0.25 h, read-out: Concentration in rat plasma, individual animals 4-6) was 159 ng/mL, the concentration at 0.25 h (Pharmacokinetic study; male, SD, rat, plasma, iv, 3 mg/kg, i.v. 3 mg/kg, 0.25 h, read-out: Concentration in rat plasma, mean) was 146 ng/mL and the concentration at 0.75 h (Pharmacokinetic study; male, SD, rat, plasma, iv, 3 mg/kg, i.v. 3 mg/kg, 0.75 h, read-out: Concentration in rat plasma, individual animals 4-6) was 59.3 ng/mL. The concentration at 0.75 h (Pharmacokinetic study; male, SD, rat, plasma, iv, 3 mg/kg, i.v. 3 mg/kg, 0.75 h, read-out: Concentration in rat plasma, mean) was 68.8 ng/mL, the concentration at 2 h (Pharmacokinetic study; male, SD, rat, plasma, iv, 3 mg/kg, i.v. 3 mg/kg, 2.00 h, read-out: Concentration in rat plasma, individual animals 4-6) was 13.4 ng/mL and the concentration at 2 h (Pharmacokinetic study; male, SD, rat, plasma, iv, 3 mg/kg, i.v. 3 mg/kg, 2.00 h, read-out: Concentration in rat plasma, mean) was 17.9 ng/mL. It also gave a concentration at 4 h (Pharmacokinetic study; male, SD, rat, plasma, iv, 3 mg/kg, i.v. 3 mg/kg, 4.00 h, read-out: Concentration in rat plasma, individual animals 4-6) of 2.9 ng/mL, a concentration at 4 h (Pharmacokinetic study; male, SD, rat, plasma, iv, 3 mg/kg, i.v. 3 mg/kg, 4.00 h, read-out: Concentration in rat plasma, mean) of 3.83 ng/mL and a concentration at 8 h (Pharmacokinetic study; male, SD, rat, plasma, iv, 3 mg/kg, i.v. 3 mg/kg, 8.00 h) of 1.97 ng/mL. For the same compound, the concentration at 24 h (Pharmacokinetic study; male, SD, rat, plasma, iv, 3 mg/kg, i.v. 3 mg/kg, 24.0 h, read-out: Concentration in rat plasma, individual animals 4-6) was 0.9 ng/mL, the concentration at 24 h (Pharmacokinetic study; male, SD, rat, plasma, iv, 3 mg/kg, i.v. 3 mg/kg, 24.0 h, read-out: Concentration in rat plasma, mean) was 1.13 ng/mL and the half-life (Pharmacokinetic study; male, SD, rat, plasma, iv, 3 mg/kg, i.v. 3 mg/kg, individual animals 4-6) was 15.3 h. The AUC(0-inf) (Pharmacokinetic study; male, SD, rat, plasma, iv, 3 mg/kg, rat, i.v. 3 mg/kg, individual animals 4-6, read-out: AUCINF_obs) was 228 ng·h/mL, the AUC(0-t) (Pharmacokinetic study; male, SD, rat, plasma, iv, 3 mg/kg, rat, i.v. 3 mg/kg, individual animals 4-6, read-out: AUClast) was 208 ng·h/mL and the clearance (Pharmacokinetic study; male, SD, rat, plasma, iv, 3 mg/kg, rat, i.v. 3 mg/kg, individual animals 4-6, read-out: CL_obs) was 219 mL/min/kg. For the same compound, the MRT inf (Pharmacokinetic study; male, SD, rat, plasma, iv, 3 mg/kg, rat, i.v. 3 mg/kg, individual animals 4-6) was 5.79 h, the MRT inf (Pharmacokinetic study; male, SD, rat, plasma, iv, 3 mg/kg, rat, i.v. 3 mg/kg, mean) was 6.3 h and the concentration at 0.25 h (Pharmacokinetic study; male, SD, rat, plasma, po, 10 mg/kg, p.o. 10 mg/kg, 0.25 h, read-out: Concentration in rat plasma, mean) was 19.6 ng/mL. For the same compound, the concentration at 0.5 h (Pharmacokinetic study; male, SD, rat, plasma, po, 10 mg/kg, p.o. 10 mg/kg, 0.50 h) was 22.5 ng/mL, the concentration at 1 h (Pharmacokinetic study; male, SD, rat, plasma, po, 10 mg/kg, p.o. 10 mg/kg, 1.00 h) was 16.1 ng/mL and the concentration at 2 h (Pharmacokinetic study; male, SD, rat, plasma, po, 10 mg/kg, p.o. 10 mg/kg, 2.00 h, read-out: Concentration in rat plasma, individual animals 1-3) was 5.7 ng/mL. For the same compound, the concentration at 2 h (Pharmacokinetic study; male, SD, rat, plasma, po, 10 mg/kg, p.o. 10 mg/kg, 2.00 h, read-out: Concentration in rat plasma, mean) was 7.23 ng/mL and the concentration at 4 h (Pharmacokinetic study; male, SD, rat, plasma, po, 10 mg/kg, p.o. 10 mg/kg, 4.00 h, read-out: Concentration in rat plasma, mean) was 7.83 ng/mL.
